Laboratory results from the supplement of paper PMC13207355.

How the values were obtained:
Settings in all cases: exposure time: 72 h
E28 [1] = patient-derived glioblastoma stem cells of classical subtype; experiment: surviving fraction (nuclei count normalised to DMSO); higher = more cells surviving (less toxic)
E57 [2] = patient-derived glioblastoma stem cells of mesenchymal subtype; experiment: as above
E31 [3] = patient-derived glioblastoma stem cells of proneural subtype; experiment: as above
E34 [4] = patient-derived glioblastoma stem cells of proneural subtype; experiment: as above
E13 [5] = patient-derived glioblastoma stem cells of classical subtype; experiment: as above
E21 [6] = patient-derived glioblastoma stem cells of mesenchymal subtype; experiment: as above
FT3469 [7] = normal neural stem cell line; experiment: as above
E28 [8] = experiment: phenotypic distance (Euclidean, principal components) from DMSO controls (arbitrary units); higher = stronger morphological change
E57 [9] = experiment: as above
E31 [10] = experiment: as above
E34 [11] = experiment: as above
E13 [12] = experiment: as above
E21 [13] = experiment: as above
FT3469 [14] = experiment: as above
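Throughout, for phenotypic distance (Euclidean, principal components) from DMSO controls: cell Painting imaging in 384-well plates, CellProfiler features reduced to at least 20 principal components, Euclidean distance versus same-plate DMSO vehicle wells (0.1% v/v), median over six images per well.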
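Throughout, for surviving fraction (nuclei count normalised to DMSO): nuclei counted by high-content imaging of Hoechst-stained cells in laminin-coated 384-well plates, relative to 0.1% DMSO vehicle wells, with staurosporine as cell-death control.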

Nc1nc2n[nH]nc2c(=O)[nH]1 [Azaguanine-8]
Settings | phenotypic distance | surviving fraction
E13 [5], 4.1 nM | – | 0.918
E13 [5], 12.3 nM | – | 1.02
E13 [5], 37 nM | – | 1.08
E13 [5], 111.1 nM | – | 0.87
E13 [5], 333.3 nM | – | 0.559
E13 [5], 1000 nM | – | 0.581
E13 [5], 3000 nM | – | 0.307
E13 [12], 4.1 nM | 0.737 | –
E13 [12], 12.3 nM | 0.508 | –
E13 [12], 37 nM | 1.23 | –
E13 [12], 111.1 nM | 0.95 | –
E13 [12], 333.3 nM | 2.46 | –
E13 [12], 1000 nM | 2.82 | –
E13 [12], 3000 nM | 5.02 | –
E21 [6], 4.1 nM | – | 0.917
E21 [6], 12.3 nM | – | 1.06
E21 [6], 37 nM | – | 0.788
E21 [6], 111.1 nM | – | 0.68
E21 [6], 333.3 nM | – | 0.489
E21 [6], 1000 nM | – | 0.429
E21 [6], 3000 nM | – | 0.296
E21 [13], 4.1 nM | 0.646 | –
E21 [13], 12.3 nM | 1.28 | –
E21 [13], 37 nM | 1.04 | –
E21 [13], 111.1 nM | 1.87 | –
E21 [13], 333.3 nM | 3.3 | –
E21 [13], 1000 nM | 4.9 | –
E21 [13], 3000 nM | 7.15 | –
E28 [1], 4.1 nM | – | 1.08
E28 [1], 12.3 nM | – | 1.11
E28 [1], 37 nM | – | 1.14
E28 [1], 111.1 nM | – | 0.882
E28 [1], 333.3 nM | – | 0.664
E28 [1], 1000 nM | – | 0.574
E28 [1], 3000 nM | – | 0.292
E28 [8], 4.1 nM | 0.671 | –
E28 [8], 12.3 nM | 0.89 | –
E28 [8], 37 nM | 1 | –
E28 [8], 111.1 nM | 0.848 | –
E28 [8], 333.3 nM | 1.21 | –
E28 [8], 1000 nM | 1.81 | –
E28 [8], 3000 nM | 3.73 | –
E31 [3], 4.1 nM | – | 0.825
E31 [3], 12.3 nM | – | 0.941
E31 [3], 37 nM | – | 1.07
E31 [3], 111.1 nM | – | 0.654
E31 [3], 333.3 nM | – | 0.48
E31 [3], 1000 nM | – | 0.225
E31 [3], 3000 nM | – | 0.0814
E31 [10], 4.1 nM | 1.03 | –
E31 [10], 12.3 nM | 0.622 | –
E31 [10], 37 nM | 0.999 | –
E31 [10], 111.1 nM | 1.08 | –
E31 [10], 333.3 nM | 1.4 | –
E31 [10], 1000 nM | 2.35 | –
E31 [10], 3000 nM | 5.2 | –
E34 [4], 4.1 nM | – | 0.988
E34 [4], 12.3 nM | – | 0.839
E34 [4], 37 nM | – | 0.913
E34 [4], 111.1 nM | – | 0.939
E34 [4], 333.3 nM | – | 0.795
E34 [4], 1000 nM | – | 0.601
E34 [4], 3000 nM | – | 0.563
E34 [11], 4.1 nM | 0.455 | –
E34 [11], 12.3 nM | 0.707 | –
E34 [11], 37 nM | 0.662 | –
E34 [11], 111.1 nM | 0.809 | –
E34 [11], 333.3 nM | 1.12 | –
E34 [11], 1000 nM | 2.2 | –
E34 [11], 3000 nM | 3.18 | –
E57 [2], 4.1 nM | – | 1
E57 [2], 12.3 nM | – | 0.873
E57 [2], 37 nM | – | 0.831
E57 [2], 111.1 nM | – | 0.605
E57 [2], 333.3 nM | – | 0.459
E57 [2], 1000 nM | – | 0.271
E57 [2], 3000 nM | – | 0.22
E57 [9], 4.1 nM | 0.712 | –
E57 [9], 12.3 nM | 0.801 | –
E57 [9], 37 nM | 1.2 | –
E57 [9], 111.1 nM | 1.96 | –
E57 [9], 333.3 nM | 3.18 | –
E57 [9], 1000 nM | 5.55 | –
E57 [9], 3000 nM | 6.09 | –
FT3469 [7], 4.1 nM | – | 0.958
FT3469 [7], 12.3 nM | – | 1.15
FT3469 [7], 37 nM | – | 1.2
FT3469 [7], 111.1 nM | – | 0.987
FT3469 [7], 333.3 nM | – | 0.881
FT3469 [7], 1000 nM | – | 0.685
FT3469 [7], 3000 nM | – | 0.59
FT3469 [14], 4.1 nM | 0.821 | –
FT3469 [14], 12.3 nM | 1.13 | –
FT3469 [14], 37 nM | 0.941 | –
FT3469 [14], 111.1 nM | 1.28 | –
FT3469 [14], 333.3 nM | 1.37 | –
FT3469 [14], 1000 nM | 1.95 | –
FT3469 [14], 3000 nM | 2.95 | –
